Experimental findings from PubChem BioAssay (NCI) are described below.

Holding throughout (assay): inhibition of tumour cell growth, NCI panel, 48 h
For test [1], the system named is A549 NSCLC.
In test [2] the test system is SN12C renal.
The test system of test [3] is SK-MEL-5 melanoma.
The subject of test [4] is RXF 393 renal.
Test [5] concerns UO-31 renal.
In test [6] the test system is ACHN renal.
Test [7] concerns DU-145 prostate.
The subject of test [8] is A498 renal.

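Grown in 96-well plates, cells were treated for 48 hours with each compound at five concentrations. Insufficient inhibition: endpoint recorded as highest concentration tested. Abbreviation: GI50, concentration required for 50% inhibition of growth. TGI marks complete inhibition of growth.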

On to `CCCCCOc1ccc(/C=N/Nc2cc(C)nc3ccc(Cl)cc23)cc1`, for which the GI50 in test [1] was 1.9 µM; in test [2] it was 1.71 µM; in test [3] it was 1.63 µM; in test [4], 1.63 µM; in test [5], 1.56 µM; in test [6] it was 1.75 µM. Further, the GI50 was 1.88 µM in test [7] and 1.19 µM in test [8]. Further, the TGI in test [1] amounted to 3.52 µM; in test [2] it was 3.22 µM; in test [3], 3.01 µM; in test [4], 3.08 µM; in test [5], 2.93 µM; in test [6], 3.13 µM. Moreover, the TGI in test [7] worked out at 3.7 µM; in test [8] it was 2.47 µM.

Consider `N#CC1c2ccccc2C=CN1C(=O)CCCl` (stereo not given), for which the GI50 in test [1] is 20.1 µM; in test [2] it was 15.6 µM; in test [3] it was 16.6 µM; in test [4], 11.8 µM; in test [5] it was 2.32 µM; in test [6], 1.73 µM. The GI50 in test [7] is 9.04 µM; in test [8], 11.7 µM. Further, the TGI in test [1] worked out at 37.3 µM; in test [2], 34.9 µM; in test [3], 30.6 µM; in test [4], 25.9 µM; in test [5], 7.2 µM; in test [6] it was 3.22 µM. The figures for the TGI in test [7] and in test [8] were 21.9 µM and 25.8 µM, respectively.

Turning to `Nc1nc2c(c3cnccc13)C(c1ccc(Cl)c(Cl)c1)Cc1cnccc1-2` (stereo not given), the GI50 in test [1] was 0.665 µM; in test [2], 1.18 µM; in test [3] it was 0.58 µM; in test [4], 0.522 µM; in test [5], 1.54 µM; in test [6], 0.807 µM. Further, the values for the GI50 in test [7] and in test [8] were 0.615 µM and 0.227 µM, respectively. Further, the TGI in test [1] worked out at 4.84 µM; in test [2], 6.68 µM; in test [3], 3.83 µM; in test [4], 3.48 µM; in test [5] it was 6.72 µM; in test [6], 4.04 µM. Besides, the TGI came to 11.2 µM in test [7] and 1.01 µM in test [8].

In the case of `O=[N+]([O-])c1ccc(Cl)c2c([N+](=O)[O-])cccc12`, the TGI in test [1], in test [2], in test [3] and in test [4] was above 10 µM throughout.

On to `CCCCCCCCCCCC[N+]1(CCCCCCCCCCCC)CCCC(C)C1` (stereo not given), for which the GI50 is 0.172 µM in test [1]; 0.198 µM in test [4]; 0.984 µM in test [6]; 0.57 µM in test [7]; 1.26 µM in test [8]. Moreover, the TGI in test [1] stood at 0.736 µM; in test [4], 0.894 µM; in test [6], 2.27 µM; in test [7], 1.87 µM; in test [8], 2.52 µM.

Consider `FC(F)(F)Oc1cccc(-c2cc(NCCCCCCNc3cc(-c4cccc(OC(F)(F)F)c4)nc4ccc(N5CCCC5)cc34)c3cc(N4CCCC4)ccc3n2)c1`, for which the GI50 was 2.05 µM in test [1]; 1.64 µM in test [2]; 1.77 µM in test [3]; 1.65 µM in test [4]; 1.54 µM in test [5]; 2.46 µM in test [7]. The GI50 in test [8] was 2.05 µM. In addition, the TGI in test [1] was found to be 4.49 µM; in test [2], 3.06 µM; in test [3] it was 3.22 µM; in test [4], 3.22 µM; in test [5], 2.88 µM; in test [7], 5.76 µM. The same molecule showed a TGI in test [8] of 3.57 µM.

On to `O=C(NCCNCCO)c1ccc2c(c1)oc1cc3ccccc3c(=O)n12`, for which the GI50 in test [1] was 16.2 µM; in test [2], 29.1 µM; in test [3], 12.6 µM; in test [4], 14.2 µM; in test [5] it was 16.6 µM; in test [6], 19 µM. For the same molecule, in test [7], the GI50 is 41.2 µM. In addition, the TGI is above 50 µM in test [1]; above 50 µM in test [2]; 32.1 µM in test [3]; above 50 µM in test [4]; above 50 µM in test [5]; above 50 µM in test [6]. The molecule also gave a TGI in test [7] above 50 µM.

Turning to `O=C1CC(c2ccccc2)Oc2ccccc21` (stereo not given), the TGI was 65.8 µM in test [3]; 94.4 µM in test [4]; above 100 µM in test [5]; above 100 µM in test [6]; above 100 µM in test [7]; 94 µM in test [8].

For `CCn1c2c(c3ccccc3c1=O)C(=O)c1ccccc1-2`, the TGI in test [1], in test [2], in test [3], in test [5], in test [7] and in test [8] was above 100 µM in each case.

On to `COc1ccc(OC)c(/C=C/c2nc(=S)n(-c3ccc(Cl)cc3)[nH]2)c1`, for which the GI50 in test [1] was 9.07 µM; in test [2] it was 6.07 µM; in test [3], 3.58 µM; in test [4], 3.38 µM; in test [6], 23.8 µM; in test [7], 19.1 µM. In addition, the GI50 in test [8] was 6.66 µM. Also, the TGI in test [1] is above 100 µM; in test [2], above 100 µM; in test [3], above 100 µM; in test [4], 38.7 µM; in test [6], above 100 µM; in test [7] it was above 100 µM. Besides, the TGI in test [8] is above 100 µM.

With `COc1ccc(C(=O)c2cc(OC)c(OC)c(OC)c2OC)cc1O`, the GI50 in test [1] was 5.4 µM; in test [2], 6.64 µM; in test [3] it was 2.93 µM; in test [5], 5.02 µM; in test [6], 8.94 µM; in test [7], 4.64 µM. The GI50 in test [8] was 6.31 µM. Besides, the TGI in test [1], in test [2], in test [3], in test [5], in test [6] and in test [7] was above 100 µM throughout. In test [8], this molecule gave a TGI above 100 µM.
